Consider 1 molecule from patent US7763604B2, “Methods for administration of a farnesyl dibenzodiazepinone” (Thallion Pharma Ceuticals, Inc., priority 2005, dated 2010).

Structures are written as SMILES.

The test system of data set [1] is rat glioma (C6) tumor xenograft. The data set can be described thus: rat C6 glioblastoma subcutaneous tumor model, antitumor efficacy. The data set is classed as in vivo, female athymic (nu/nu) nude mice. As to the method:
The rat C6 glioblastoma antitumor efficacy study was performed at INSERM U318 (Grenoble, France). The rat C6 glioblastoma subcutaneous tumor model is based on the use of a rat C6 cell line obtained from a rat glial tumor induced by N-nitrosomethylurea (Benda et al. (1968), Science, vol 161, 370-371). These animal studies were done according to ethical guidelines of animal experimentation (Charte du comité d'éthique du CNRS, 2003) and the English “Guidelines for the welfare of animals in experimental neoplasia (Second Edition)” from the United Kingdom Coordinating Committee on Cancer Research (UKCCCR) (Workman et al. (1998), Br. J. Cancer, vol 77, no 1, 1-10). On each dosing day, Formula I stock solutions (24 and 40 mg/mL in 20% ethanol, 20% PEG-400 and 60% Tween 80) were diluted with sterile 5% dextrose in water (D5W) to prepare dosing solutions of 6 mg/mL and 10 mg/mL of Formula I in a vehicle consisting of 5% ethanol, 5% PEG-400, 15% Tween-80, and 75% D5W.
For the rat glioma antitumor efficacy study, female athymic (nu/nu) nude mice (6-7 weeks of age) were inoculated SC with 5×10^6 C6 cells (day 0). Tumor bearing animals were randomized (10 per group) when tumors were palpable (day 6). Group 1 (control group) received drug-free vehicle (5% ethanol, 5% PEG-400, 15% Tween-80, and 75% D5W) IP (5 mL/kg), once daily on days 6-18 (q1d×13). Group 2 received Formula I (6 mg/mL) IP at 20 mg/kg, once daily on days 6 to 13 and then at 10 mg/kg once daily on days 14 to 18. Group 3 received Formula I (6 mg/mL) SC at 30 mg/kg, once daily on days 6 to 13 and then at 15 mg/kg once daily on days 14 to 18. Group 4 received Formula I (10 mg/mL) IV at 100 mg/kg q1d×5 for 2 weeks. Each animal was euthanized when its tumor reached the predetermined endpoint size (˜2,500 mm^3) or at the end of the study (D18). Treatment period was over 13 days, from day 6 to day 18, post tumor cell inoculation. Tumor growth inhibition (TGI) was calculated on day 16 post tumor cell inoculation, at which time some animals from the vehicle control group had to be sacrificed due to tumor burden.
In this model and the models of Examples 3, 6 and 7, tumor growth was followed every other day by measuring tumor length (L) and width (W) using a calliper. Measurements were converted to tumor volumes (TV; mm^3) using the standard formula, TV=(L×W^2)/2. Tumor volume at day n was expressed as relative tumor volume (RTV) according to the following formula RTV=TVn/TV0, where TVn is the tumor volume at day n and TV0 is the tumor volume at day 0. The percentage of tumor growth inhibition (% TGI) was determined by 1−(mean RTV of treated group/mean RTV of control group)×100. […] Statistical analysis was calculated by the two-tailed unpaired t test using the Prism software. […]

Data set [2] has as its system P388 murine leukemia cells. The data set can be described thus: murine P388 leukemia model, survival. Format: in vivo. The following applies: group 2, IV 50 mg/kg in PEG-PG formulation, 10 mice per group. As to the method:
Formulation: The compound of Formula I is first dissolved in 1 volume of 90% propylene glycol (PG). This is followed by the addition of 2 volumes of 45% polyethylene glycol 400 (PEG 400). The volume ratio of PEG 400/PG/water is respectively 30:30:40. Compound is injected in a volume of 10 mL/kg.
DBA/2 female mice (6 weeks of age) were injected intraperitoneally (IP) with 1×10^6 P388 murine leukemia cells (day 0). […]
Mice body weights were recorded twice a week. Lethality and behaviour of animals were recorded every day. […] The results are expressed as percent of mean survival time of treated animals over the mean survival time of the control group (treated vs control, T/C %) and as increase life span (mean survival time of treated animals minus that of control animals over the mean survival time of the control group; ILS %).

The nature of data set [3]: acute toxicity, 24-hour CIV administration in monkeys. The data set is classed as in vivo.
Data set [4] in a line: population pharmacokinetic analysis, mouse (IV). The data set is classed as in vivo. As to conditions: population PK. As to the method:
An analysis was performed to derive allometric equations for Formula I pharmacokinetic parameters using Formula I plasma concentration-time data from three species, including mouse, rat, and monkey, and to estimate human pharmacokinetic parameters from those allometric equations.
Plasma concentrations of Formula I were obtained from mice, rats, and monkeys following intravenous injection or continuous infusion. Formula I pharmacokinetic parameters in mice, rats, and monkeys were estimated using population pharmacokinetic analysis, a function of the software program NONMEM™ (version 5). Typical population pharmacokinetic parameters for Formula I in humans were extrapolated from allometric equations that were derived from pharmacokinetic parameters estimated in the three animal species.
A two-compartment model with a first-order elimination from the central compartment adequately described Formula I plasma concentration-time profiles following intravenous bolus injection (30 mg/kg) in mice and rats, 7-day continuous infusion in rats (50 to 170 mg/kg/day), and 14-day continuous infusion in monkeys (5 to 30 mg/kg/day).

As for `CC(C)=CCC/C(C)=C/CC/C(C)=C/CN1C(=O)c2cccc(O)c2Nc2c(O)cc(O)cc21` [Formula I, 10-farnesyl-4,6,8-trihydroxy-dibenzodiazepin-11-one], the “Maximum body weight loss” value was 15% in data set [1] (IP 20 mg/kg (Q1D×8) followed by 10 mg/kg (Q1D×7), Day 13) and 11% in data set [1] (SC 30 mg/kg (Q1D×8) followed by 15 mg/kg (Q1D×7)). In data set [1] (IV bolus 100 mg/kg (Q1D×5) over 2 weeks), the “tumor volume relative to the vehicle control” value is on record as “No significant difference in tumor volume”. Besides, the body weight loss result in data set [1] (IV group, 100 mg/kg (Q1D×5) over 2 weeks) was “No significant body weight loss”. For the same molecule, in data set [2], the “mice died one day after treatment due to formulation toxicity” value was found to be 3 mice. Further, the tolerability result in data set [3] (35 mg/kg) and in data set [3] (70 mg/kg) was “well tolerated” throughout. Also, in data set [4], the Ke was found to be 8.466 h⁻¹.
